Results reported in US12161722B2, “Bifunctional heterocyclic compound having BTK degradation function via ubiquitin proteasome pathway, and use thereof” (KOREA RESEARCH INSTITUTE OF CHEMICAL TECHNOLOGY, priority 2021, dated 2024).

Key:
C481S BTK protein = target: T1, C481S BTK protein (Homo sapiens, UniProt Q06187, C481S); assay: BTK protein degradation assay (Western blotting), C481S BTK; assay type: cell-based; conditions: concentration range accounting for 50% degradation of C481S BTK protein, 293T BTK MUT (C481S) cells
T1 construct: expressed in transfected cells; host or cells: 293T BTK MUT (C481S) cells
How it was run: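 TMD-8, RAMOS or 293T BTK C481S cells were treated 24 h with compounds from 10-fold DMSO stock series (10 to 0.0001 mM). BTK was measured by Western blot with GAPDH/β-actin references. Activity was binned by concentration giving 50% degradation: +++ (0.0001-0.01 μM), ++ (0.01-1 μM), + (1-10 μM), − (>10 μM).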

WT BTK protein = target: T2, WT BTK protein (Homo sapiens, UniProt Q06187); assay: BTK protein degradation assay (Western blotting), WT BTK; assay type: cell-based; conditions: concentration range accounting for 50% degradation of WT BTK protein, TMD-8 or RAMOS cells, 24 hours
T2 construct: measured for intracellular BTK protein levels by Western blotting; endogenous in cells; host or cells: TMD-8 or RAMOS cells
How it was run: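 TMD-8 cells (1×10^6 cells/mL) treated 24 h with compound serial dilutions, then lysed in RIPA. Equal protein loads analysed by Western blot for BTK with GAPDH/β-actin as loading controls; activity binned by concentration giving 50% WT BTK degradation.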

T2 sequence (Q06187 whole entry): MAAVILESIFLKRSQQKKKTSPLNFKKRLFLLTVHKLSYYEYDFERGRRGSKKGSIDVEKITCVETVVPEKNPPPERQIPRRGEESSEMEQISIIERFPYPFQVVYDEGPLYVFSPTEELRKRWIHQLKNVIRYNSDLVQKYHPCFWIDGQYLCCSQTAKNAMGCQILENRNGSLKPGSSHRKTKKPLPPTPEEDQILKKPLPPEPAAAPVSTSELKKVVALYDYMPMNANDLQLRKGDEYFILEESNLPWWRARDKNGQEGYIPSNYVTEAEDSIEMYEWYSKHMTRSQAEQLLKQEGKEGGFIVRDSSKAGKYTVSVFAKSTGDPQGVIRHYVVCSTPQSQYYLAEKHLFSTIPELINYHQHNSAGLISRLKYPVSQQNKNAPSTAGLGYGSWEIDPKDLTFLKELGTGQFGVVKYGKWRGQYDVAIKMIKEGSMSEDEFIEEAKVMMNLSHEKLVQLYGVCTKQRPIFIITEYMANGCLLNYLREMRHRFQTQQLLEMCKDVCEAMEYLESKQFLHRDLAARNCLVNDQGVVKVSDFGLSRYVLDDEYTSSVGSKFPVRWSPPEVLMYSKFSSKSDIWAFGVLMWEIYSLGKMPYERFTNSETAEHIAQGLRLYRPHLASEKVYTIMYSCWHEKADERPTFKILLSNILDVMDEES
T1 sequence (Q06187 whole entry C481S): as the sequence (Q06187 whole entry) above, with C481S counted along it

| Compound | DC50 (C481S BTK protein) | DC50 (WT BTK protein) |
| --- | --- | --- |
| Cc1cccc(C)c1Nc1nn(C)c2nc(Nc3ccc4c(c3)CN(C(=O)COCCOCCOCCOCCNC(=O)CNc3cccc5c3C(=O)N(C3CCC(=O)NC3=O)C5=O)CC4)ncc12 (stereo not drawn) [Compound 10, N-(14-(7-((3-((2,6-Dimethylphenyl)amino)-1-methyl-1H-pyrazolo[3,4-d]pyrimidin-6-yl)amino)-3,4-dihydroisoquinolin-2 (1H)-yl)-14-oxo-3,6,9,12-tetraoxatetradecyl)-2-((2-(2,6-dioxopiperidin-3-yl)-1,3-dioxoisoindolin-4-yl)amino)acetamide] | > 10 µM | 0.01 to 1 µM |
| Cc1cccc(C)c1Nc1nn(C)c2nc(Nc3ccc4c(c3)CN(C(=O)C3CCN(C(=O)C5CCN(c6ccc7c(=O)n(C8CCC(=O)NC8=O)nnc7c6)CC5)CC3)CC4)ncc12 (stereo not drawn) [Compound 60, 3-(7-(4-(4-(7-((3-((2,6-Dimethylphenyl)amino)-1-methyl-1H-pyrazolo[3,4-d]pyrimidin-6-yl)amino)-1,2,3,4-tetrahydroisoquinoline-2-carbonyl)piperidine-1-carbonyl)piperidin-1-yl)-4-oxobenzo[d][1,2,3]triazin-3 (4H)-yl)piperidin-2,6-one] | 0.01 to 1 µM | 0.0001 to 0.01 µM |
| Cc1cccc(C)c1Nc1nn(C)c2nc(Nc3ccc4c(c3)CN(CCOCCNC(=O)C3CCN(c5ccc6c(c5)C(=O)N(C5CCC(=O)NC5=O)C6=O)CC3)CC4)ncc12 (stereo not drawn) [Compound 21, N-(2-(2-(7-((3-((2,6-Dimethylphenyl)amino)-1-methyl-1H-pyrazolo[3,4-d]pyrimidin-6-yl)amino)-3,4-dihydroisoquinolin-2 (1H)-yl)ethoxy)ethyl)-1-(2-(2,6-dioxopiperidin-3-yl)-1,3-dioxoisoindolin-5-yl)piperidine-4-carboxamide] | 1 to 10 µM | 0.0001 to 0.01 µM |
| Cc1cccc(C)c1Nc1nn(C)c2nc(Nc3ccc4c(c3)CN(CCOCCOCC(=O)Nc3ccc5c(c3)C(=O)N(C3CCC(=O)NC3=O)C5=O)CC4)ncc12 (stereo not drawn) [Compound 23, 2-(2-(2-(7-((3-((2,6-Dimethylphenyl)amino)-1-methyl-1H-pyrazolo[3,4-d]pyrimidin-6-yl)amino)-3,4-dihydroisoquinolin-2 (1H)-yl)ethoxy)ethoxy)-N-(2-(2,6-dioxopiperidin-3-yl)-1,3-dioxoisoindolin-5-yl)acetamide] | 1 to 10 µM | 0.0001 to 0.01 µM |
| Cc1cccc(C)c1Nc1nn(C)c2nc(Nc3ccc4c(c3)CN(CC3CCN(C(=O)C5CCN(c6ccc7nnn(C8CCC(=O)NC8=O)c(=O)c7c6)CC5)CC3)CC4)ncc12 (stereo not drawn) [Compound 37, 3-(6-(4-(4-((7-((3-((2,6-Dimethylphenyl)amino)-1-methyl-1H-pyrazolo[3,4-d]pyrimidin-6-yl)amino)-3,4-dihydroisoquinolin-2 (1H)-yl)methyl)piperidine-1-carbonyl)piperidin-1-yl)-4-oxobenzo[d][1,2,3]triazin-3 (4H)-yl)piperidin-2,6-one] | 0.0001 to 0.01 µM | 0.0001 to 0.01 µM |
| Cc1cccc(C)c1Nc1nn(C)c2nc(Nc3ccc4c(c3)CN(CCOCCNC(=O)COc3ccc5c(c3)C(=O)N(C3CCC(=O)NC3=O)C5=O)CC4)ncc12 (stereo not drawn) [Compound 25, N-(2-(2-(7-((3-((2,6-Dimethylphenyl)amino)-1-methyl-1H-pyrazolo[3,4-d]pyrimidin-6-yl)amino)-3,4-dihydroisoquinolin-2 (1H)-yl)ethoxy)ethyl)-2-((2-(2,6-dioxopiperidin-3-yl)-1,3-dioxoisoindolin-5-yl)oxy)acetamide] | 1 to 10 µM | 0.0001 to 0.01 µM |
| Cc1cccc(C)c1Nc1nn(C)c2nc(Nc3ccc4c(c3)CN(CC3CCN(C(=O)C5CCN(c6cccc7nnn(C8CCC(=O)NC8=O)c(=O)c67)CC5)CC3)CC4)ncc12 (stereo not drawn) [Compound 62, 3-(5-(4-(4-((7-((3-((2,6-Dimethylphenyl)amino)-1-methyl-1H-pyrazolo[3,4-d]pyrimidin-6-yl)amino)-3,4-dihydroisoquinolin-2 (1H)-yl)methyl)piperidine-1-carbonyl)piperidin-1-yl)-4-oxobenzo[d][1,2,3]triazin-3 (4H)-yl)piperidin-2,6-one] | 0.01 to 1 µM | 0.0001 to 0.01 µM |
| Cc1cccc(C)c1Nc1nn(C)c2nc(Nc3ccc4c(c3)CN(C(=O)C3CCN(c5ccc6nnn(C7CCC(=O)NC7=O)c(=O)c6c5)CC3)CC4)ncc12 (stereo not drawn) [Compound 58, 3-(6-(4-(7-((3-((2,6-Dimethylphenyl)amino)-1-methyl-1H-pyrazolo[3,4-d]pyrimidin-6-yl)amino)-1,2,3,4-tetrahydroisoquinoline-2-carbonyl)piperidin-1-yl)-4-oxobenzo[d][1,2,3]triazin-3 (4H)-yl)piperidin-2,6-one] | 0.01 to 1 µM | 0.0001 to 0.01 µM |
| Cc1cccc(C)c1Nc1nn(C)c2nc(Nc3ccc4c(c3)CN(CC3CCN(c5ccc6c(c5)C(=O)N(C5CCC(=O)NC5=O)C6=O)CC3)CC4)ncc12 (stereo not drawn) [Compound 29, 5-(4-((7-((3-((2,6-Dimethylphenyl)amino)-1-methyl-1H-pyrazolo[3,4-d]pyrimidin-6-yl)amino)-3,4-dihydroisoquinolin-2 (1H)-yl)methyl)piperidin-1-yl)-2-(2,6-dioxopiperidin-3-yl)isoindoline-1,3-dione] | 0.01 to 1 µM | 0.0001 to 0.01 µM |
| Cc1cccc(C)c1Nc1nn(C)c2nc(Nc3ccc4c(c3)CN(CC3CCN(C(=O)COc5ccc6c(c5)C(=O)N(C5CCC(=O)NC5=O)C6=O)CC3)CC4)ncc12 (stereo not drawn) [Compound 30, 5-(2-(4-((7-((3-((2,6-Dimethylphenyl)amino)-1-methyl-1H-pyrazolo[3,4-d]pyrimidin-6-yl)amino)-3,4-dihydroisoquinolin-2 (1H)-yl)methyl)piperidin-1-yl)-2-oxoethoxy)-2-(2,6-dioxopiperidin-3-yl)isoindoline-1,3-dione] | 0.01 to 1 µM | 0.0001 to 0.01 µM |
| Cc1cccc(C)c1Nc1nn(C)c2nc(Nc3ccc4c(c3)CN(Cc3cn(CCOCCOCCNC(=O)CNc5ccc6c(c5)C(=O)N(C5CCC(=O)NC5=O)C6=O)nn3)CC4)ncc12 (stereo not drawn) [Compound 12, N-(2-(2-(2-(4-((7-((3-((2,6-Dimethylphenyl)amino)-1-methyl-1H-pyrazolo[3,4-d]pyrimidin-6-yl)amino)-3,4-dihydroisoquinolin-2 (1H)-yl)methyl)-1H-1,2,3-triazol-1-yl)ethoxy)ethoxy)ethyl)-2-((2-(2,6-dioxopiperidin-3-yl)-1,3-dioxoisoindolin-5-yl)amino)acetamide] | > 10 µM | 0.01 to 1 µM |
| Cc1cccc(C)c1Nc1nn(C)c2nc(Nc3ccc4c(c3)CN(C(=O)COCCOCCNc3cccc5c3C(=O)N(C3CCC(=O)NC3=O)C5=O)CC4)ncc12 (stereo not drawn) [Compound 3, 4-((2-(2-(2-(7-((3-((2,6-Dimethylphenyl)amino)-1-methyl-1H-pyrazolo[3,4-d]pyrimidin-6-yl)amino)-3,4-dihydroisoquinolin-2 (1H)-yl)-2-oxoethoxy)ethoxy)ethyl)amino)-2-(2,6-dioxopiperidin-3-yl)isoindoline-1,3-dione] | 1 to 10 µM | 0.0001 to 0.01 µM |
| Cc1cccc(C)c1Nc1nn(C)c2nc(Nc3ccc4c(c3)CN(C(=O)CCOCCOCCOCCOCCNC(=O)CN3CCN(c5ccc6c(c5)C(=O)N(C5CCC(=O)NC5=O)C6=O)CC3)CC4)ncc12 (stereo not drawn) [Compound 18] | > 10 µM | 0.0001 to 0.01 µM |
| Cc1cccc(C)c1Nc1nn(C)c2nc(Nc3ccc4c(c3)CN(C(=O)C3CCN(c5cccc6nnn(C7CCC(=O)NC7=O)c(=O)c56)CC3)CC4)ncc12 (stereo not drawn) [Compound 59] | 1 to 10 µM | 0.0001 to 0.01 µM |
| Cc1cccc(C)c1Nc1nn(C)c2nc(Nc3ccc4c(c3)CN(CCOCCNC(=O)C3CN(c5ccc6c(c5)C(=O)N(C5CCC(=O)NC5=O)C6=O)C3)CC4)ncc12 (stereo not drawn) [Compound 27, N-(2-(2-(7-((3-((2,6-Dimethylphenyl)amino)-1-methyl-1H-pyrazolo[3,4-d]pyrimidin-6-yl)amino)-3,4-dihydroisoquinolin-2 (1H)-yl)ethoxy)ethyl)-1-(2-(2,6-dioxopiperidin-3-yl)-1,3-dioxoisoindolin-5-yl)azetidine-3-carboxamide] | 1 to 10 µM | 0.0001 to 0.01 µM |
| Cc1cccc(C)c1Nc1nn(C)c2nc(Nc3ccc4c(c3)CN(C(=O)CCCCCCCCCCCNc3cccc5c3C(=O)N(C3CCC(=O)NC3=O)C5=O)CC4)ncc12 (stereo not drawn) [Compound 7, 4-((12-(7-((3-((2,6-Dimethylphenyl)amino)-1-methyl-1H-pyrazolo[3,4-d]pyrimidin-6-yl)amino)-3,4-dihydroisoquinolin-2 (1H)-yl)-12-oxododecyl)amino)-2-(2,6-dioxopiperidin-3-yl)isoindoline-1,3-dione] | > 10 µM | 0.0001 to 0.01 µM |
| Cc1cccc(C)c1Nc1nn(C)c2nc(Nc3ccc4c(c3)CN(C[C@H]3CCN(c5ccc6c(c5)C(=O)N(C5CCC(=O)NC5=O)C6=O)C3)CC4)ncc12 (stereo partly drawn) [Compound 144, 5-((R)-3-((7-((3-((2,6-dimethylphenyl)amino)-1-methyl-1H-pyrazolo[3,4-d]pyrimidin-6-yl)amino)-3,4-dihydroisoquinolin-2 (1H)-yl)methyl)pyrrolidin-1-yl)-2-(2,6-dioxopiperidin-3-yl)isoindoline-1,3-dione] | 0.0001 to 0.01 µM | 0.0001 to 0.01 µM |
| Cc1cccc(C)c1Nc1nn(C)c2nc(Nc3ccc4c(c3)CN(C(=O)C3CCN(C(=O)COc5ccc6nnn(C7CCC(=O)NC7=O)c(=O)c6c5)CC3)CC4)ncc12 (stereo not drawn) [Compound 55, 3-(6-(2-(4-(7-((3-((2,6-Dimethylphenyl)amino)-1-methyl-1H-pyrazolo[3,4-d]pyrimidin-6-yl)amino)-1,2,3,4-tetrahydroisoquinoline-2-carbonyl)piperidin-1-yl)-2-oxoethoxy)-4-oxobenzo[d][1,2,3]triazin-3 (4H)-yl)piperidin-2,6-one] | 0.01 to 1 µM | 0.0001 to 0.01 µM |
